{"source": "paper PMC12775434", "about": "“Ultra-large virtual screening unveils potent agonists of the neuromodulatory orphan receptor GPR139” (Nature Communications, 2025)", "type_in_all_cases": "cell-based", "key": {"[1]": {"target": "T1, GPR139 (GoA activation) (Homo sapiens, UniProt Q6DWJ6)", "T1 construct": "expressed in transfected cells; host or cells: HEK293A (transient, Lipofectamine 2000)", "T1 sequence (Q6DWJ6 1-353)": "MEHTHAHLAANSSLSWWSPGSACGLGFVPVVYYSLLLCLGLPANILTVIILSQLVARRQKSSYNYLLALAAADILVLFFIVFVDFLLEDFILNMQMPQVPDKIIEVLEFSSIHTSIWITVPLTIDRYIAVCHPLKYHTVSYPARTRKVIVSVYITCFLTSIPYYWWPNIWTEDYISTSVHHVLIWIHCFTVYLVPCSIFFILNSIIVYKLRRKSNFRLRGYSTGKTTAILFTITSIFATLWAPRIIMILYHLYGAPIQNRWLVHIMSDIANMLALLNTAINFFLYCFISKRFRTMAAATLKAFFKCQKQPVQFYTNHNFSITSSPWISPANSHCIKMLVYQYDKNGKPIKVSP", "assay": "BRET G protein activation (dissociation) assay, GoA, HEK293A", "details": "for G protein activation, GoA: individual replicates", "experimental": "(§1) Primary screening and pharmacological characterization of compounds were performed using a CHO-K1 cell line that stably expresses human GPR139 (GPR139-CHOk1). The GPR139-CHOk1 cell line was kindly provided by H. Lundbeck A/S, Denmark[24]. GPR139-CHOk1 cells were grown in Ham’s F-12 Kaighn’s Modification Medium (ThermoFisher #21127030) supplemented with 10% dialyzed fetal bovine serum (US origin, ThermoFisher #26400044), 100 units/mL Penicillin-Streptomycin (ThermoFisher #15140122), and 1 mg/mL Geneticin (ThermoFisher #11811031). […] M1R-CHOk1 cells were purchased from The Missouri S&T cDNA Resource Center (#CEM100TN00). M1R-CHOk1 cells were grown in Ham’s F12 Medium (ThermoFisher #21765029) supplemented with 10% fetal bovine serum (Brazilian origin, ThermoFisher #10270106), 100 units/mL Penicillin-Streptomycin, and 0.25 mg/mL Geneticin. HEK293A cells transiently transfected with GPR139 were used for additional pharmacological assessment of signaling pathways activated by GPR139. HEK239A cells were generously provided by Dr. Asuka Inoue, Tohoku University, Japan. HEK293A cells were grown in Dulbecco’s Modified Eagle Medium (ThermoFisher #31966047) supplemented with 10% dialyzed fetal bovine serum and 100 units/mL Penicillin-Streptomycin. Cell lines were maintained at 37 °C in humidified incubator equilibrated with 5% CO2.\n(§2) The G protein dissociation assay developed by the lab of Kirill A. Martemyanov was used to measure the coupling of multiple G proteins by GPR139[57]. The assay was performed as described previously with minor modifications. HEK293A cells were reverse transfected 20–24 h prior to assay. 50,000 cells were plated in each well of white opaque tissue culture treated 96-well plates (PerkinElmer #6005680) previously coated with poly-D-lysine. Transfection solutions were prepared as described, and 10 µL transfection solution was mixed with 100 µL cells in each well. The cells in each well were transfected with 18.9 ng GPR139, 6.3 ng Venus 1-155 Gγ2, 6.3 ng Venus 159-239 Gβ1, 6.3 ng masGRK3ct-NanoLuc and 12.6 ng Gαi2, 12.6 ng Gαi3, 12.6 ng GαoA, 12.6 ng Gαq or 25.2 ng Gα12 using 375 nL Lipofectamine 2000 Transfection Reagent. Transfections with Gαq and Gα12 contained 6.3 ng DNA of the active subunit S1 of pertussis toxin (PTX-S1). Each transfection was normalized to 150 ng total DNA with pcDNA3.1. The BRET biosensors were a kind gift from the Martemyanov lab. On the day of the experiment the cells were washed with HEPES buffer. Test compounds were diluted in HEPES buffer from DMSO stocks (final DMSO concentration of maximally 0.3%). NanoLuc Luciferase substrate NanoGlo—furimazine (Promega #N1120) was diluted 1000-fold (final) in HEPES buffer. NanoGlo and test compounds were added, and measurements were performed after 10 s for Gi3, 15 s for Gi2 and GoA, 20 s for Gq, and 90 s for G12—the timepoint where maximal signal occurred with each G protein, ensuring proper determination of the potency for the G protein coupling. Simultaneous dual emission was measured at 535 nm and 475 nm on LUMIstar Omega Microplate Reader (BMG Labtech) at room temperature. The BRET ratio of 535 nm/475 nm (Venus/NanoLuc), reflecting the dissociation of the G protein heterotrimer, was used to determine the G protein activation. The basal BRET ratio obtained with buffer condition was subtracted from the absolute BRET ratio at a given test compound concentration, and the responses were normalized to the one obtained with 10 µM JNJ-63533054 for the activation of Gi2.\n(§3) Pharmacological data and statistical analyses were performed in GraphPad Prism v9–10 (Graphpad Software Inc., San Diego, CA), which are also specifically described in the figure and table legends. […]"}, "[2]": {"target": "T2, GPR139 (G12 activation) (Homo sapiens, UniProt Q6DWJ6)", "T2 construct": "expressed in transfected cells; host or cells: HEK293A (transient, Lipofectamine 2000)", "T2 sequence (Q6DWJ6 1-353)": "T1 sequence (Q6DWJ6 1-353)", "assay": "BRET G protein activation (dissociation) assay, G12, HEK293A", "details": "for G protein activation, G12: individual replicates", "experimental": "as §1, §2, §3"}, "[3]": {"target": "T3, GPR139 (Gi3 activation) (Homo sapiens, UniProt Q6DWJ6)", "T3 construct": "expressed in transfected cells; host or cells: HEK293A (transient, Lipofectamine 2000)", "T3 sequence (Q6DWJ6 1-353)": "T1 sequence (Q6DWJ6 1-353)", "assay": "BRET G protein activation (dissociation) assay, Gi3, HEK293A", "details": "for G protein activation, Gi3: individual replicates", "experimental": "as §1, §2, §3"}, "[4]": {"details": "HEK293-A, normalized to JNJ-63533054 (JNJ(S))"}}, "note": "“And” between values parts separate entries of the source, which are not always exact repeats. Equal values may be shown once."}
{"smiles": "Cc1cscc1-c1nc(CC(=O)N[C@@H](C)c2ccccc2)no1", "note": "[1.1(S)]", "values": [{"measurement": "Emax", "setting": "[1]; [4]", "result": "96 ± 3", "unit": "%"}, {"measurement": "EC50", "setting": "[1]; Supplementary Table 6", "result": 63.1, "unit": "nM"}, {"measurement": "G protein activation, GoA", "setting": "[1]; log [compound] M -4.5", "result": "105 % of JNJ-63533054 at Gi2 and 96 % of JNJ-63533054 at Gi2 and 101 % of JNJ-63533054 at Gi2"}, {"measurement": "G protein activation, GoA", "setting": "[1]; log [compound] M -5.0", "result": "96 % of JNJ-63533054 at Gi2 and 86 % of JNJ-63533054 at Gi2 and 97 % of JNJ-63533054 at Gi2"}, {"measurement": "G protein activation, GoA", "setting": "[1]; log [compound] M -5.5", "result": "94 % of JNJ-63533054 at Gi2 and 83 % of JNJ-63533054 at Gi2 and 96 % of JNJ-63533054 at Gi2"}, {"measurement": "G protein activation, GoA", "setting": "[1]; log [compound] M -6.0", "result": "93 % of JNJ-63533054 at Gi2 and 78 % of JNJ-63533054 at Gi2 and 92 % of JNJ-63533054 at Gi2"}, {"measurement": "G protein activation, GoA", "setting": "[1]; log [compound] M -6.5", "result": "83 % of JNJ-63533054 at Gi2 and 70 % of JNJ-63533054 at Gi2 and 76 % of JNJ-63533054 at Gi2"}, {"measurement": "G protein activation, GoA", "setting": "[1]; log [compound] M -7.0", "result": "62 % of JNJ-63533054 at Gi2 and 52 % of JNJ-63533054 at Gi2 and 61 % of JNJ-63533054 at Gi2"}, {"measurement": "G protein activation, GoA", "setting": "[1]; log [compound] M -7.5", "result": "34 % of JNJ-63533054 at Gi2 and 29 % of JNJ-63533054 at Gi2 and 31 % of JNJ-63533054 at Gi2"}, {"measurement": "G protein activation, GoA", "setting": "[1]; log [compound] M -8.0", "result": "11 % of JNJ-63533054 at Gi2 and 8 % of JNJ-63533054 at Gi2 and 13 % of JNJ-63533054 at Gi2"}, {"measurement": "Emax", "setting": "[2]; [4]", "result": "54 ± 3", "unit": "%"}, {"measurement": "EC50", "setting": "[2]; Supplementary Table 6, read-out: pEC50 G12 (converted)", "result": 12.6, "unit": "nM"}, {"measurement": "G protein activation, G12", "setting": "[2]; log [compound] M -4.5", "result": "60 % of JNJ-63533054 at Gi2 (2×) and 52 % of JNJ-63533054 at Gi2"}, {"measurement": "G protein activation, G12", "setting": "[2]; log [compound] M -5.0", "result": "54 % of JNJ-63533054 at Gi2 and 46 % of JNJ-63533054 at Gi2 and 58 % of JNJ-63533054 at Gi2"}, {"measurement": "G protein activation, G12", "setting": "[2]; log [compound] M -5.5", "result": "51 % of JNJ-63533054 at Gi2 and 44 % of JNJ-63533054 at Gi2 and 56 % of JNJ-63533054 at Gi2"}, {"measurement": "G protein activation, G12", "setting": "[2]; log [compound] M -6.0", "result": "52 % of JNJ-63533054 at Gi2 and 45 % of JNJ-63533054 at Gi2 and 55 % of JNJ-63533054 at Gi2"}, {"measurement": "G protein activation, G12", "setting": "[2]; log [compound] M -6.5", "result": "47 % of JNJ-63533054 at Gi2 and 43 % of JNJ-63533054 at Gi2 and 53 % of JNJ-63533054 at Gi2"}, {"measurement": "G protein activation, G12", "setting": "[2]; log [compound] M -7.0", "result": "46 % of JNJ-63533054 at Gi2 and 39 % of JNJ-63533054 at Gi2 and 52 % of JNJ-63533054 at Gi2"}, {"measurement": "G protein activation, G12", "setting": "[2]; log [compound] M -7.5", "result": "36 % of JNJ-63533054 at Gi2 and 32 % of JNJ-63533054 at Gi2 and 42 % of JNJ-63533054 at Gi2"}, {"measurement": "G protein activation, G12", "setting": "[2]; log [compound] M -8.0", "result": "22 % of JNJ-63533054 at Gi2 and 19 % of JNJ-63533054 at Gi2 and 27 % of JNJ-63533054 at Gi2"}, {"measurement": "Emax", "setting": "[3]; [4]", "result": "45 ± 3", "unit": "%"}, {"measurement": "EC50", "setting": "[3]; Supplementary Table 6, read-out: pEC50 Gi3 (converted)", "result": 50.1, "unit": "nM"}, {"measurement": "G protein activation, Gi3", "setting": "[3]; log [compound] M -4.5", "result": "50 % of JNJ-63533054 at Gi2 and 43 % of JNJ-63533054 at Gi2 and 51 % of JNJ-63533054 at Gi2"}, {"measurement": "G protein activation, Gi3", "setting": "[3]; log [compound] M -5.0", "result": "46 % of JNJ-63533054 at Gi2 and 36 % of JNJ-63533054 at Gi2 and 43 % of JNJ-63533054 at Gi2"}, {"measurement": "G protein activation, Gi3", "setting": "[3]; log [compound] M -5.5", "result": "46 % of JNJ-63533054 at Gi2 and 40 % of JNJ-63533054 at Gi2 and 43 % of JNJ-63533054 at Gi2"}, {"measurement": "G protein activation, Gi3", "setting": "[3]; log [compound] M -6.0", "result": "44 % of JNJ-63533054 at Gi2 and 36 % of JNJ-63533054 at Gi2 and 42 % of JNJ-63533054 at Gi2"}, {"measurement": "G protein activation, Gi3", "setting": "[3]; log [compound] M -6.5", "result": "37 % of JNJ-63533054 at Gi2 (2×) and 36 % of JNJ-63533054 at Gi2"}, {"measurement": "G protein activation, Gi3", "setting": "[3]; log [compound] M -7.0", "result": "31 % of JNJ-63533054 at Gi2 and 26 % of JNJ-63533054 at Gi2 and 28 % of JNJ-63533054 at Gi2"}, {"measurement": "G protein activation, Gi3", "setting": "[3]; log [compound] M -7.5", "result": "18 % of JNJ-63533054 at Gi2 and 14 % of JNJ-63533054 at Gi2 and 21 % of JNJ-63533054 at Gi2"}, {"measurement": "G protein activation, Gi3", "setting": "[3]; log [compound] M -8.0", "result": "11 % of JNJ-63533054 at Gi2 and 5.42 % of JNJ-63533054 at Gi2 and 10 % of JNJ-63533054 at Gi2"}]}
